Data: patent US20090023186A1, “USE OF VALPROIC ACID FOR ENHANCING PRODUCTION OF RECOMBINANT PROTEINS IN MAMMALIAN CELLS” (EXCELLGENE SA, priority 2007, published 2009)

Tests used:
[1] = tested on: CHO DG44 cells; assay: Influence of temperature on IgG batch titer and comparison with sodium butyrate (Example 2); type: cell-based, Chinese Hamster; conditions: 3 mmol/l sodium butyrate; relative to control = 1; day 5 after transfection
Method: (§1) No. 14571C-[…]; Lot No. 6A0093; SAFC Biosciences, Lenexa, Kans., USA, “Ex-Cell” medium; note: “Ex-Cell” medium-as used herein-refers to a medium comprising 4 mmol/l L-glutamine) in a 50-ml filter tube each (TPP AG, Trasadingen, Switzerland; Cat. No. 87050, Lot 20050174). In a separate set, 10 million suspension-adapted CHO DG44 cells were resuspended in 0.5 ml of ProCHO5 serum-free medium with 4 mmol/[…] hypoxanthine and 0.194 g/l thymidine (BioWhittaker (Lonza), Belgium; Cat. No. BE12-[…]; Lot No. 7 MB0040; “ProCHO5” medium; note: “ProCHO5” medium-as used herein-refers to a medium comprising 4 mmol/[…] hypoxanthine and 0.194 g/l thymidine) in a 50-ml filter tube each (TPP AG, Trasadingen, Switzerland; Cat. No. 87050, Lot 20050174). Then 12.5 μg plasmid DNA at a concentration of 1 μg/μl was added in each tube with the following composition 50% (6.25 μg) p-LC (SEQ ID NO: 1) 50% (6.25 μg) p-HC (SEQ ID NO: 3). Plasmid p-LC comprises the genetic information for the production of the light chain of an IgG antibody, plasmid p-HC comprises the genetic information for the production of the heavy chain of an IgG antibody. The particular vector constructs used in the present invention can also be obtained from the inventors. The inventors can be contacted via e-mail at […]. Moreover, commercial services do exist that produce any desired nucleotide sequence even comprising several kilobase pairs including complete expression cassettes in plasmid backgrounds (e.g., Invitrogen, Carlsbad, USA; Geneart, Germany.) Thus, providing the genetic sequence information of the plasmids should enable one of ordinary skill in the art to order the plasmids of the present invention at one of the commercial services listed. After shortly mixing the DNA with the cells by gentle shaking, 25 μg of 25-kd linear polyethyleneimine (“PEI”; Polysciences, Eppelheim, Germany; [2]) were added at a concentration of 1 μg/μl to each of the tubes. After shortly mixing by gentle shaking, the filter tubes containing the cells together with the DNA and PEI were transferred into an orbital shaker (Kühner Shaker Cabinet ISF-4-W, “Kühner shaker”, Kühner AG, Birsfelden, Switzerland), and the cells were incubated for 4 hours at 37° C. in a 5% CO2 atmosphere under shaking at 180 rpm. After that time, 4.5 ml of Ex-Cell medium were added to each of the filter tubes containing HEK 293 cells and 4.5 ml of Pro-CHO5 were added to each of the filter tubes containing CHO DG44 cells. […] No. […] Sigma-Aldrich Chemie GmbH, Industriestrasse 25, CH-9471 Buchs SG) was added to the corresponding tubes at the corresponding final concentrations. The cells then were returned into the Kühner shaker. Half the tubes were incubated at 37° C. in a 5% CO2 atmosphere under shaking at 180 rpm, the other half was incubated at 31° C. […] The ELISA was performed as published in prior art. In short, Goat anti-human kappa light chain IgG (Biosource) was used for coating the ELISA-plates, and with AP-conjugated goat anti-human gamma chain IgG (Biosource) the synthesized IgG1 was detected. NPP was used as a substrate for the alkaline phosphatase. Absorption was measured at 405 nm against 490 nm using a microplate reader (SPECTRAmaxTM340; Molecular Devices, Palo Alto, Calif., USA).

[2] = tested on: HEK293E cells; assay: as above; type: cell-based, Human; conditions: 3 mmol/l sodium butyrate; relative to control = 1; day 5 after transfection
Method: as §1

[3] = tested on: HEK293E cells; assay: Preferred embodiment: transient IgG expression with p18 and p21 co-transfection, batch titer by ELISA; type: cell-based, Human
Method: 20 million suspension-adapted HEK293E cells were resuspended in 1 ml of Ex-Cell 293 HEK 293 serum-free medium with 4 mmol/l L-glutamine (Cat. No. 14571C-[…]; Lot No. 6A0093; SAFC Biosciences, Lenexa, Kans., USA, “Ex-Cell” medium; note: “Ex-Cell” medium-as used herein-refers to a medium comprising 4 mmol/l L-glutamine) in a 50-ml filter tube each (TPP AG, Trasadingen, Switzerland; Cat. No. 87050, Lot 20050174). Then 50 μg plasmid DNA at a concentration of 1 μg/μl was added in each tube with the following composition […] Plasmid p-LC comprises the genetic information for the production of the light chain of an IgG antibody, plasmid p-HC comprises the genetic information for the production of the heavy chain of an IgG antibody, plasmid p-p18 comprises the genetic information for the protein p18, and plasmid p-p21 comprises the genetic information for the protein p21. The particular vector constructs used in the present invention can also be obtained from the inventors. The inventors can be contacted via e-mail at […]. Moreover, commercial services do exist that produce any desired nucleotide sequence even comprising several kilobase pairs including complete expression cassettes in plasmid backgrounds (e.g., Invitrogen, Carlsbad, USA; Geneart, Germany.) Thus, providing the genetic sequence information of the plasmids should enable one of ordinary skill in the art to order the plasmids of the present invention at one of the commercial services listed. After shortly mixing the DNA with the cells by gentle shaking, 100 μg of 25-kd linear polyethyleneimine (“PEI”; Polysciences, Eppelheim, Germany; [2]) were added at a concentration of 1 μg/μl to each of the tubes. After shortly mixing by gentle shaking, the filter tubes containing the cells together with the DNA and PEI were transferred into an orbital shaker (Kühner Shaker Cabinet ISF-4-W, “Kühner shaker”, Kühner AG, Birsfelden, Switzerland), and the cells were incubated for 3 hours at 37° C. in a 5% CO2 atmosphere under shaking at 180 rpm. After that time, 4 ml of Ex-Cell medium were added to each of the filter tubes. […] No. B5887-1G; Sigma-Aldrich Chemie GmbH, Industriestrasse 25, CH-9471 Buchs SG) was added to the corresponding tubes at the corresponding final concentrations. […] The ELISA was performed as published in prior art. In short, Goat anti-human kappa light chain IgG (Biosource) was used for coating the ELISA-plates, and with AP-conjugated goat anti-human gamma chain IgG (Biosource) the synthesized IgG1 was detected. NPP was used as a substrate for the alkaline phosphatase. Absorption was measured at 405 nm against 490 nm using a microplate reader (SPECTRAmaxTM340; Molecular Devices, Palo Alto, Calif., USA).

[4] = tested on: HEK293E cells; assay: Combination with IDMTs, IgG batch yield by ELISA (Example 6); type: cell-based, Human; conditions: no addition = 100%, day 5
Method: 10 million suspension-adapted HEK293E cells were resuspended in 0.5 ml of Ex-Cell 293 HEK 293 serum-free medium with 4 mmol/l L-glutamine (Cat. No. 14571C-[…]; Lot No. 6A0093; SAFC Biosciences, Lenexa, Kans., USA, “Ex-Cell” medium; note: “Ex-Cell” medium-as used herein-refers to a medium comprising 4 mmol/l L-glutamine) in a 50-ml filter tube each (TPP AG, Trasadingen, Switzerland; Cat. No. 87050, Lot 20050174). In a separate set, 10 million suspension-adapted CHO DG44 cells were resuspended in 0.5 ml of ProCHO5 serum-free medium with 4 mmol/[…] hypoxanthine and 0.194 g/l thymidine (BioWhittaker (Lonza), Belgium; Cat. No. BE12-[…]; Lot No. 7MB0040; “ProCHO5” medium; note: “ProCHO5” medium-as used herein-refers to a medium comprising 4 mmol/[…] hypoxanthine and 0.194 g/l thymidine) in a 50-ml filter tube each (TPP AG, Trasadingen, Switzerland; Cat. No. 87050, Lot 20050174). Then 12.5 μg plasmid DNA at a concentration of 1 μg/μl was added in each tube with the following composition 50% (6.25 μg) p-LC (SEQ ID NO: 1) 50% (6.25 μg) p-HC (SEQ ID NO: 3). Plasmid p-LC comprises the genetic information for the production of the light chain of an IgG antibody, plasmid p-HC comprises the genetic information for the production of the heavy chain of an IgG antibody. The particular vector constructs used in the present invention can also be obtained from the inventors. The inventors can be contacted via e-mail at […]. […] In short, Goat anti-human kappa light chain IgG (Biosource) was used for coating the ELISA-plates, and with AP-conjugated goat anti-human gamma chain IgG (Biosource) the synthesized IgG1 was detected. […] Absorption was measured at 405 nm against 490 nm using a microplate reader (SPECTRAmaxTM340; Molecular Devices, Palo Alto, Calif., USA).

[5] = tested on: CHO DG44 cells; assay: as above; type: cell-based, Chinese Hamster; conditions: day 5; for Fold increase in batch yield over control: no addition = 100%; for interaction with VPA in increasing batch yield: CHO cells
Method: 10 million suspension-adapted HEK293E cells were resuspended in 0.5 ml of Ex-Cell 293 HEK 293 serum-free medium with 4 mmol/l L-glutamine (Cat. No. 14571C-[…]; Lot No. 6A0093; SAFC Biosciences, Lenexa, Kans., USA, “Ex-Cell” medium; note: “Ex-Cell” medium-as used herein-refers to a medium comprising 4 mmol/l L-glutamine) in a 50-ml filter tube each (TPP AG, Trasadingen, Switzerland; Cat. No. 87050, Lot 20050174). In a separate set, 10 million suspension-adapted CHO DG44 cells were resuspended in 0.5 ml of ProCHO5 serum-free medium with 4 mmol/[…] hypoxanthine and 0.194 g/l thymidine (BioWhittaker (Lonza), Belgium; Cat. No. BE12-[…]; Lot No. 7MB0040; “ProCHO5” medium; note: “ProCHO5” medium-as used herein-refers to a medium comprising 4 mmol/[…] hypoxanthine and 0.194 g/l thymidine) in a 50-ml filter tube each (TPP AG, Trasadingen, Switzerland; Cat. No. 87050, Lot 20050174). Then 12.5 μg plasmid DNA at a concentration of 1 μg/μl was added in each tube with the following composition 50% (6.25 μg) p-LC (SEQ ID NO: 1) 50% (6.25 μg) p-HC (SEQ ID NO: 3). Plasmid p-LC comprises the genetic information for the production of the light chain of an IgG antibody, plasmid p-HC comprises the genetic information for the production of the heavy chain of an IgG antibody. The particular vector constructs used in the present invention can also be obtained from the inventors. The inventors can be contacted via e-mail at […]. Moreover, commercial services do exist that produce any desired nucleotide sequence even comprising several kilobase pairs including complete expression cassettes in plasmid backgrounds (e.g., Invitrogen, Carlsbad, USA; Geneart, Germany.) Thus, providing the genetic sequence information of the plasmids should enable one of ordinary skill in the art to order the plasmids of the present invention at one of the commercial services listed. After shortly mixing the DNA with the cells by gentle shaking, 25 μg of 25-kd linear polyethyleneimine (“PEI”; Polysciences, Eppelheim, Germany; [2]) were added at a concentration of 1 μg/μl to each of the tubes. After shortly mixing by gentle shaking, the filter tubes containing the cells together with the DNA and PEI were transferred into an orbital shaker (Kühner Shaker Cabinet ISF-4-W, “Kühner shaker”, Kühner AG, Birsfelden, Switzerland), and the cells were incubated for 4 hours at 37° C. in a 5% CO2 atmosphere under shaking at 180 rpm. After that time, 4.5 ml of Ex-Cell medium were added to each of the filter tubes containing HEK 293 cells and 4.5 ml of Pro-CHO5 were added to each of the filter tubes containing CHO DG44 cells. Then, valproic acid was added to each of the tubes at the corresponding final concentration. In addition, the following chemicals were added to the corresponding tubes at a final concentration of: […] Azacytidine was purchased from Sigma-Aldrich Chemie GmbH, Industriestrasse 25, CH-9471 Buchs SG, Catalog Number A1287-1 VL. RG108 was purchased from Sigma-Aldrich Chemie GmbH, Industriestrasse 25, CH-9471 Buchs SG, Catalog Number R8279-10MG. The cells then were returned into the Kuhner shaker and incubated at 37° C. in a 5% CO2 atmosphere under shaking at 180 rpm. […] In short, Goat anti-human kappa light chain IgG (Biosource) was used for coating the ELISA-plates, and with AP-conjugated goat anti-human gamma chain IgG (Biosource) the synthesized IgG1 was detected. […] Absorption was measured at 405 nm against 490 nm using a microplate reader (SPECTRAmaxTM340; Molecular Devices, Palo Alto, Calif., USA).

Row | SMILES | Batch titer increase at 31° C. [1] | Batch titer increase at 37° C. [1] | Batch titer increase at 31° C. [2] | Batch titer increase at 37° C. [2] | Batch titer ([3]; 3 mmol/l sodium butyrate, IgG with p18 and p21, day 14 after transfection) [mg/L] | Fold increase over control ([3]; 3 mmol/l sodium butyrate, day 14 after transfection) [fold] | optimal concentration ([3]; in combination with HEK293E cells) [mmol/L] | Fold increase in batch yield over control ([4]; Azacytidine 6 μmol/l) | Fold increase in batch yield over control ([5]; Azacytidine 4 μmol/l) | interaction with VPA in increasing batch yield [5] | Fold increase in batch yield over control ([4]; RG108 8 μmol/l) | Fold increase in batch yield over control ([5]; RG108 60 μmol/l)
1 | CCCC(=O)[O-].[Na+] [sodium butyrate] | 1.3 ± 0.1 | 1.9 ± 0.1 | 4.8 ± 0.4 | 4.8 ± 0.4 | 528 ± 42 | 7.2 | 3 |  |  |  |  | 
2 | Nc1ncn([C@@H]2O[C@H](CO)[C@@H](O)[C@H]2O)c(=O)n1 [Azacytidine] |  |  |  |  |  |  |  | 160% ± 15% | 160% ± 10% | act synergistically together with VPA |  | 
3 | O=C(O)C(Cc1c[nH]c2ccccc12)N1C(=O)c2ccccc2C1=O (stereo not shown) [RG108] |  |  |  |  |  |  |  |  |  | act synergistically together with VPA | 150% ± 20% | 170% ± 15%
